{"source": "patent US7659251B2", "about": "“Ligand for G-protein coupled receptor FPRL2” (priority 2004, dated 2010)", "key": {"FPR [1]": {"biological_target": "T1, FPR (Homo sapiens, UniProt P21462, E346A/V101L)", "T1 construct": "expressed in transfected cells; host or cells: CHO-K1 (with or without Galpha16 and apoaequorin)", "T1 sequence (P21462 1-350 V101L/E346A)": "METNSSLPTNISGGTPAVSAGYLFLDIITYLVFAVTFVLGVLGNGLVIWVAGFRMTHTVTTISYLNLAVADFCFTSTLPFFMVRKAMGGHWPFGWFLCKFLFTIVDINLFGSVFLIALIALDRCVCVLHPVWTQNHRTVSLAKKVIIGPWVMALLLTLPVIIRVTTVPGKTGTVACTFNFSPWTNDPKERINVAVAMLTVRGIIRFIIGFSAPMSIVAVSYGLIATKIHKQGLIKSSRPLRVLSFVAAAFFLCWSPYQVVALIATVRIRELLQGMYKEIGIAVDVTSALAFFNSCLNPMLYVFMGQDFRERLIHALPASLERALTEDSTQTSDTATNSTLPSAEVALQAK", "test": "Aequorin-based assay on CHO-K1 cells expressing FPR", "assay_type": "cell-based", "excerpt": "The human coding sequences (accession numbers AC005946, M84562 and M60626, respectively) were amplified by PCR from human genomic DNA, cloned into the pcDNA3 (Invitrogen) and pEFIN3 (Euroscreen) vectors and sequenced. The pEFIN3 constructs were transfected, using Fugene 6, into CHO-K1 cells, expressing or not Gα16 and apoaequorin. G418-resistant clones were characterized for receptor expression by Northern blotting. […] Results were expressed as relative light units (RLU) or as the percentage of the response to 20 μM ATP."}, "FPR [2]": {"biological_target": "T1, FPR", "test": "cAMP accumulation assay (HTRF, forskolin) on FPR-expressing CHO-K1 cells", "assay_type": "cell-based", "experimental": "The cAMP concentrations were determined using a homogeneous time-resolved fluorescence (HTRF) kit (Cis Bio International). Briefly, cells were detached, resuspended in Krebs Ringer Hepes buffer containing 1 mM 3-Isobutyl-1-methylxanthine, and submitted to 10 μM forskolin, alone or together with increasing concentrations of agonists for 30 min at room temperature. The reaction was stopped by the successive addition of cAMP-XL665 and anti-cAMP cryptate diluted in lysis buffer. The plates were incubated for 60 min at room temperature and read on a Rubystar fluorimeter (BMG). […] A calibration curve was obtained by plotting delta F % versus cAMP concentrations. […] The aequorin-based assay was performed with or without overnight pretreatment with 100 ng/ml Pertussis toxin. […] For FPRL2 polymorphism analysis, HEK cells were transiently transfected with empty and wild-type or Asp338H is FPRL2-containing pcdna vector using calcium phosphate method. Cells were recovered 48 hours later and used for FACS or cAMP experiments."}, "FPR [3]": {"biological_target": "T1, FPR", "test": "Competition binding on FPR-expressing CHO-K1 cells, tracer [125I]-WKYMVm", "experimental": "FPRL2, FPRL1 and FPR-expressing CHO-K1 cells were plated in 24 wells plates (200,000 cells per well for FPRL2, and 100,000 cells per well for the two other receptors). The next day, the cells were washed twice with a KRH buffer containing 280 mM saccharose and, for FPRL1 and FPR, 0.1 % NaN3. […] Cells were washed twice with ice cold buffer, total radioactivity was recovered with 1 M […] and counted in a gamma counter for […]"}, "ERK1/2 MAP-kinases": {"system": "ERK1/2 MAP-kinases", "test": "ERK1/2 activation by Western blotting in FPRL2-expressing CHO-K1 cells", "assay_type": "cell-based, human", "experimental": "The cAMP concentrations were determined using a homogeneous time-resolved fluorescence (HTRF) kit (Cis Bio International). Briefly, cells were detached, resuspended in Krebs Ringer Hepes buffer containing 1 mM 3-Isobutyl-1-methylxanthine, and submitted to 10 μM forskolin, alone or together with increasing concentrations of agonists for 30 min at room temperature. The reaction was stopped by the successive addition of cAMP-XL665 and anti-cAMP cryptate diluted in lysis buffer. The plates were incubated for 60 min at room temperature and read on a Rubystar fluorimeter (BMG). […] A calibration curve was obtained by plotting delta F % versus cAMP concentrations. ERK1/2 activation was assayed by Western blotting, using an anti-phospho-p42/44 monoclonal antibody (E10, Cell Signaling Technology) as described (46). The aequorin-based assay was performed with or without overnight pretreatment with 100 ng/ml Pertussis toxin. […] For FPRL2 polymorphism analysis, HEK cells were transiently transfected with empty and wild-type or Asp338H is FPRL2-containing pcdna vector using calcium phosphate method. Cells were recovered 48 hours later and used for FACS or cAMP experiments."}, "monocytes": {"system": "monocytes", "test": "Ca2+ mobilization assay on monocytes", "assay_type": "cell-based, human", "conditions": "100 nM F2L; FIG. 13C", "experimental": "Monocyte-derived DCs were generated either from the adherent fraction of PBMCs cultured with GM-CSF (800 U/ml) and […] (500 U/ml), or from Percoll-purified monocytes cultured with GM-CSF (50 ng/ml) and IL-13 (20 ng/ml), for 5 to 7 days. For Ca^2+ mobilization assay, monocytes were obtained by negative selection with the Monocyte Isolation Kit II (Miltenyi Biotec). […] For Ca^2+ mobilization assays, monocyte-derived DCs or monocytes (5×10^5 cells/ml in HBSS without phenol red but containing 0.1% BSA and 1 mM Probenecid (Sigma)) were loaded with 4 μM Fluo 4 (Molecular Probes) for 1 h at 20° C. in the dark. The loaded cells were washed twice, resuspended at 1 to 2×10^6 cells/ml and 50 μl of cell suspension was distributed per well of a 96 well plate (Viewplate, Packard Bioscience). Reading was performed in a Fluostar fluorimeter (BMG) at 25° C.: 50 μl of ligand-containing medium was injected, and the fluorescence at 520 nm was recorded every second for 1 to 3 min. Each condition was performed in triplicate, the mean fluorescence for each time point was calculated, and the curves were normalized by subtracting the mean value of the five measurements preceding the injection."}, "[4]": {"system": "wild-type CHO-K1 cells, ChemerinR and other GPCRs", "test": "Aequorin-based assay on wild-type CHO-K1 cells and CHO-K1 cells expressing ChemerinR and other GPCRs", "assay_type": "cell-based", "conditions": "data not shown", "excerpt": "The human coding sequences (accession numbers AC005946, M84562 and M60626, respectively) were amplified by PCR from human genomic DNA, cloned into the pcDNA3 (Invitrogen) and pEFIN3 (Euroscreen) vectors and sequenced. The pEFIN3 constructs were transfected, using Fugene 6, into CHO-K1 cells, expressing or not Gα16 and apoaequorin. G418-resistant clones were characterized for receptor expression by Northern blotting. A functional assay based on the luminescence of mitochondrial aequorin was performed as described (42). Results were expressed as relative light units (RLU) or as the percentage of the response to 20 μM ATP."}}, "data": [{"smiles": "CC[C@H](C)[C@H](NC(=O)[C@H](CCSC)NC(=O)CNC(=O)[C@H](CC(C)C)NC(=O)[C@H](CCSC)NC(C)=O)C(=O)N[C@@H](CCCCN)C(=O)N[C@@H](CC(N)=O)C(=O)N[C@@H](CO)C(=O)N[C@@H](CC(C)C)C(=O)N[C@@H](Cc1ccccc1)C(=O)NCC(=O)N[C@@H](CO)C(=O)N[C@H](C(=O)N[C@@H](CCC(=O)O)C(=O)N[C@H](C(=O)N[C@@H](Cc1c[nH]c2ccccc12)C(=O)N1CCC[C@H]1C(=O)N[C@@H](Cc1c[nH]c2ccccc12)C(=O)N[C@@H](CCC(N)=O)C(=O)N[C@H](C(=O)N[C@@H](CC(C)C)C(=O)O)C(C)C)[C@@H](C)O)C(C)C", "note": "[F2L]", "values": [{"measurement": "activation of FPR", "setting": "FPR [1]; FIG. 6", "value": "not able to activate"}, {"measurement": "EC50", "setting": "FPR [1]; FPR, −Log of EC50 in Mol/L, mean ± s.e.m., read-out: pEC50 (sequorin assay) (converted)", "value": "> 1000", "unit": "nM"}, {"measurement": "activity in the aequorin assay on FPR", "setting": "FPR [1]; up to 5 μM", "value": "no activity was detected"}, {"measurement": "inhibition of cAMP accumulation on FPR", "setting": "FPR [2]; 1 μM F2L", "value": "only partial inhibition"}, {"measurement": "EC50", "setting": "FPR [2]; FPR, −Log of EC50 in Mol/L, mean ± s.e.m., read-out: pEC50 (cAMP assay) (converted)", "value": "> 1000", "unit": "nM"}, {"measurement": "IC50", "setting": "FPR [3]; FPR, −Log of IC50 in Mol/L, mean ± s.e.m., read-out: pIC50 (binding assay) (converted)", "value": "> 1000", "unit": "nM"}, {"measurement": "competition for FPR binding", "setting": "FPR [3]; up to concentrations of 3 μM, tracer [125I]WKYMVm", "value": "no competition"}, {"measurement": "time of maximal ERK1/2 phosphorylation", "setting": "ERK1/2 MAP-kinases; 100 nM F2L, FIG. 11J", "value": 15, "unit": "min"}, {"measurement": "concentrations inducing phosphorylation of the ERK1/2 MAP-kinases", "setting": "ERK1/2 MAP-kinases; stimulation for 10 min, FIG. 11I", "value": "picomolar concentrations"}, {"measurement": "calcium mobilization in purified monocytes", "setting": "monocytes", "value": "Calcium mobilization was also observed"}, {"measurement": "activity on all other cell lines tested", "setting": "[4]", "value": "completely inactive"}]}]}
